Assay [1] concerns the target T1, Myosin light chain kinase family member 4 (Homo sapiens) (UniProt Q86YV6).
T1 sequence (whole entry): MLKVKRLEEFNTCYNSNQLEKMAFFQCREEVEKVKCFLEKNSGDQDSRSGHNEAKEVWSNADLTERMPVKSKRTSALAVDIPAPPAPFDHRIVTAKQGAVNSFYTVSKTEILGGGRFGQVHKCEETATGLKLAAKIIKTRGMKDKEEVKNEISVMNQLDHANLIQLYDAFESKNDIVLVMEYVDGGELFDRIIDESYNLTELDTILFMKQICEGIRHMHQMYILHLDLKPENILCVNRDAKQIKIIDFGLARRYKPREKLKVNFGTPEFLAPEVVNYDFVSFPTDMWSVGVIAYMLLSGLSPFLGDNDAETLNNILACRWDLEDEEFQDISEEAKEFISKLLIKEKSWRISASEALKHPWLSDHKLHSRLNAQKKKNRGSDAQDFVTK
Conditions: at 10 µM.

Assay [2] deals with Mitogen-activated protein kinase kinase kinase 20 (Homo sapiens) (UniProt Q9NYL2). Put plainly: Selectivity interaction (Ambit KINOMEscan and KiNATiv profiling in Jurkat cells) EUB0000090b MAP3K20. The note with it: at 1 µM. It counts as cell-based.
Assay [3] addresses Cyclin-dependent kinase-like 1 (Homo sapiens) (UniProt Q00532). The experiment in a line: Selectivity interaction (KinomeScan (DiscoverX)) EUB0000092b CDKL1. The note with it: at 10 µM.
The target in assay [4] is Histone-lysine N-methyltransferase, H3 lysine-36 specific (Homo sapiens) (UniProt Q96L73). The experiment in a line: Selectivity interaction (Methyltransferase screen (Scintillation proximity assays)) EUB0000255b NSD1. The note with it: at 1 µM. Background: SPA uses beads or plates that emit light when radiolabelled molecules are held near them.
Assay [5] deals with Receptor-type tyrosine-protein kinase FLT3 (Homo sapiens), P36888 [UNDEFINED MUTATION]. Put plainly: Selectivity interaction (KinomeScan (DiscoverX)) EUB0001049a FLT3. Conditions: at 1 µM.
The target in assay [6] is T2, Dual specificity mitogen-activated protein kinase kinase 7 (Homo sapiens) (UniProt O14733).
T2 sequence (whole entry): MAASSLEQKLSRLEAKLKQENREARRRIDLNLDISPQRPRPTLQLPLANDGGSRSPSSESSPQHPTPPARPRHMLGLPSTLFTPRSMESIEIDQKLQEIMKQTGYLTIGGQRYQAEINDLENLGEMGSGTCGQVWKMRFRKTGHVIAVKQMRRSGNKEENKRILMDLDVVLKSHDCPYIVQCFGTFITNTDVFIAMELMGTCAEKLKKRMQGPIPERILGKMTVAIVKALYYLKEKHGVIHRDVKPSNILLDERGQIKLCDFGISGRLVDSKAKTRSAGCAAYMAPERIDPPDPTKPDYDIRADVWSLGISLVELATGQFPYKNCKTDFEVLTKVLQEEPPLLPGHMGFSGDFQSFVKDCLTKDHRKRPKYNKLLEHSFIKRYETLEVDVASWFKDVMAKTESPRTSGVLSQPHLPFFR
Put plainly: Selectivity interaction (KinomeScan (DiscoverX)) EUB0001049a MAP2K7. The note with it: at 1 µM.

For assay [7], the target named is Serine/threonine-protein kinase pim-2 (Homo sapiens, UniProt Q9P1W9). The experiment in a line: Selectivity interaction (Kinase screening (Nanosyn)) EUB0000604a PIM2.
The target in assay [8] is T3, Histone-lysine N-methyltransferase SETD7 (Homo sapiens) (UniProt Q8WTS6).
T3 sequence (whole entry): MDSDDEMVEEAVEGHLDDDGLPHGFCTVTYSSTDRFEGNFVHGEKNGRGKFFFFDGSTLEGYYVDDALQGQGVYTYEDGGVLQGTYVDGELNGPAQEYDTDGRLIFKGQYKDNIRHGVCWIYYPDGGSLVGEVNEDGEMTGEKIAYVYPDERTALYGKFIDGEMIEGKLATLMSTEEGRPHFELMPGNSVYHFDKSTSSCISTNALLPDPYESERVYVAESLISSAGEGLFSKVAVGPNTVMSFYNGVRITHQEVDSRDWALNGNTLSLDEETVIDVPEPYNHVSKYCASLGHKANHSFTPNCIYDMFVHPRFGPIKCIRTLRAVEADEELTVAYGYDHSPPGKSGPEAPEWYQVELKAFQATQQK
Put plainly: Selectivity interaction (Methyltransferase screen (radiometric assays, panel of 8 PRMTs, 21 protein lysine methyltransferases, 3 DNA methyltransferases, and one RNA methyltransferase)) EUB0000271b SETD7.

For assay [9], the target named is Cyclin-dependent kinase 3 (Homo sapiens) (UniProt Q00526). The experiment in a line: Selectivity interaction (KinomeScan (DiscoverX)) EUB0000045b CDK3.
The target in assay [10] is Dual specificity tyrosine-phosphorylation-regulated kinase 1A (Homo sapiens, UniProt Q13627). Put plainly: Selectivity interaction (Kinase panel (Z-LYTE Assay)) EUB0001632a DYRK1A. The note with it: at 10 µM.
The target in assay [11] is Serine/threonine-protein kinase 25 (Homo sapiens) (UniProt O00506). Put plainly: Selectivity interaction (Kinase panel (Z-LYTE Assay)) EUB0001632a STK25. Conditions: at 10 µM.
In assay [12] the target is T4, Serine/threonine-protein kinase PLK4 (Homo sapiens) (UniProt O00444).
T4 sequence (whole entry): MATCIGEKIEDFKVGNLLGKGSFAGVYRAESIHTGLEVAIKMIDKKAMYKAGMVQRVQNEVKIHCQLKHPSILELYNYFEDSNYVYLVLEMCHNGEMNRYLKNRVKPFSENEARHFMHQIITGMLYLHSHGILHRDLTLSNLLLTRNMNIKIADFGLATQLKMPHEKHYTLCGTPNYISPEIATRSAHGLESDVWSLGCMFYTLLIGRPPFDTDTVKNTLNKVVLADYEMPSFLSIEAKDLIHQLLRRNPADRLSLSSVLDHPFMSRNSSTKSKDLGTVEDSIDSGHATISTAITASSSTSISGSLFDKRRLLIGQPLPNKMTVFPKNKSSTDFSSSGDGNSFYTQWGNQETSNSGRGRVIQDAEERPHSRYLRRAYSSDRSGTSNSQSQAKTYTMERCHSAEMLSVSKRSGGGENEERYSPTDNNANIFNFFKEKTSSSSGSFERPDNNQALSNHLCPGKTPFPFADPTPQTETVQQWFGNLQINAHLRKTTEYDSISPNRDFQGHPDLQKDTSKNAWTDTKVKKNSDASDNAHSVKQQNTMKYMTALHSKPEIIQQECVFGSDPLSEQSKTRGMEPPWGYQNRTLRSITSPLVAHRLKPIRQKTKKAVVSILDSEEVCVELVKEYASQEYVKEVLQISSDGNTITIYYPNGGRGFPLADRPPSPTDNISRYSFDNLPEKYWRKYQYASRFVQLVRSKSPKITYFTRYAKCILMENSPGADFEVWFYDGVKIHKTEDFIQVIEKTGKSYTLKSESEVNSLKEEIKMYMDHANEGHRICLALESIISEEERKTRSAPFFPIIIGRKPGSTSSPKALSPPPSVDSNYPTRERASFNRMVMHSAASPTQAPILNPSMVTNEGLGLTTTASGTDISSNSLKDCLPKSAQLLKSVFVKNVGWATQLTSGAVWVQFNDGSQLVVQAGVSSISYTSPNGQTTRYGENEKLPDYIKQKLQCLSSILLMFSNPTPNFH
Put plainly: Selectivity interaction (KinomeScan (DiscoverX)) EUB0000618a PLK4. Conditions: at 10 µM.

The structures appear in SMILES notation.

Sequence of Cyclin-dependent kinase 3 (Homo sapiens) (Q00526 whole entry, looked up): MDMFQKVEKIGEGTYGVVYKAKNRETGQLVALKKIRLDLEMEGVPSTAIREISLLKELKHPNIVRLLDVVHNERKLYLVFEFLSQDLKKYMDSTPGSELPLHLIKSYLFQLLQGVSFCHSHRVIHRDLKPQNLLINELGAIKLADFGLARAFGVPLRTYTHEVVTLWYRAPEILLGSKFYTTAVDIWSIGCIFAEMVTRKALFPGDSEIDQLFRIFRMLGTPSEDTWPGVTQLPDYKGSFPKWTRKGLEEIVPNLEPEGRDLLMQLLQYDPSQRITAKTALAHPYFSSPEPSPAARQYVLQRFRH
Sequence of Serine/threonine-protein kinase 25 (Homo sapiens) (O00506 whole entry, looked up): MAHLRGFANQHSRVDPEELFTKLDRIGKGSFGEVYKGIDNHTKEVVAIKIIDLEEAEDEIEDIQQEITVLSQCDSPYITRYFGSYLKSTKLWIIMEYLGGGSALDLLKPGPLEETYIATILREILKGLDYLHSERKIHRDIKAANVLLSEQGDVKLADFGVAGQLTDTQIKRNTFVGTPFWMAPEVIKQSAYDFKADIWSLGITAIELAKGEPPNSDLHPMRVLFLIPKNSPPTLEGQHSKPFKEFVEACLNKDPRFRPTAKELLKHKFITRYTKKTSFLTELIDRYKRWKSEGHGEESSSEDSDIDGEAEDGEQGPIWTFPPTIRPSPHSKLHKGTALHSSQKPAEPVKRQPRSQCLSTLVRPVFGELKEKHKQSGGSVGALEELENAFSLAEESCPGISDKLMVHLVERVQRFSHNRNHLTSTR
Sequence of Receptor-type tyrosine-protein kinase FLT3 (Homo sapiens), P36888 [UNDEFINED MUTATION] (P36888 whole entry, looked up, change not shown): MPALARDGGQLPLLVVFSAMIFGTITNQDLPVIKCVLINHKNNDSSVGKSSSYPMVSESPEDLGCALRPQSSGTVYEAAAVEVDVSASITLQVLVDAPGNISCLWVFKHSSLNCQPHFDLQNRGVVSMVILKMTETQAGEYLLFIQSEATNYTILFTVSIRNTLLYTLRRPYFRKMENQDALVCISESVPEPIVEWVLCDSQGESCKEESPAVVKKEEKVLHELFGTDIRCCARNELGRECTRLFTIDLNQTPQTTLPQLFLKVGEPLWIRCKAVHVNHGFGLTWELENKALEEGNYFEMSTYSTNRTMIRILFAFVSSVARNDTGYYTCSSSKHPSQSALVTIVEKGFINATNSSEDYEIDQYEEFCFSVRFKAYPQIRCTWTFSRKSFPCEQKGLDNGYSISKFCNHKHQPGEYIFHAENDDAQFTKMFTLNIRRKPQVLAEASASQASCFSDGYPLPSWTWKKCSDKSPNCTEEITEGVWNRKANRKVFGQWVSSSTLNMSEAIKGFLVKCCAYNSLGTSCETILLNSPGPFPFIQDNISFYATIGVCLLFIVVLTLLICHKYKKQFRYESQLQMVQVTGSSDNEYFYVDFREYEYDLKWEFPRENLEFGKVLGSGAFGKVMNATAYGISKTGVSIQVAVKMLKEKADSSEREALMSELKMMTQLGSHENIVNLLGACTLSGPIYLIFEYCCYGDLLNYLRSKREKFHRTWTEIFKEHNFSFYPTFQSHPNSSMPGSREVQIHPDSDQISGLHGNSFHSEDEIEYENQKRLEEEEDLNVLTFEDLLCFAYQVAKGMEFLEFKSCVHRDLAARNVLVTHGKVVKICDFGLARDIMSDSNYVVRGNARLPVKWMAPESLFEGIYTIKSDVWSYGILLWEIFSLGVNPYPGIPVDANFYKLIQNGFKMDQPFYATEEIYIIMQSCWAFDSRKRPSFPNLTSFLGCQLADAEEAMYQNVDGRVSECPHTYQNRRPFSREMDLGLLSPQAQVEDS
Sequence of Cyclin-dependent kinase-like 1 (Homo sapiens) (Q00532 whole entry): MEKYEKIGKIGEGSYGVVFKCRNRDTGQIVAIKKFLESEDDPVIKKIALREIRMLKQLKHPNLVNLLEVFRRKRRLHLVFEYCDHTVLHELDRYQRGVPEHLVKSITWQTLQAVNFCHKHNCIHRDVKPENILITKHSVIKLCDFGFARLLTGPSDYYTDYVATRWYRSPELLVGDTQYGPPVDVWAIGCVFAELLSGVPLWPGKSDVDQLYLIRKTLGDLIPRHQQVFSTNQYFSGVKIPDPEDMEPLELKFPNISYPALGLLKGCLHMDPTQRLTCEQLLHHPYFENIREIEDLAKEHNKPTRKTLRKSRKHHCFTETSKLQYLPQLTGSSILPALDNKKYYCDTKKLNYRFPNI
Sequence of Serine/threonine-protein kinase pim-2 (Q9P1W9 whole entry, looked up): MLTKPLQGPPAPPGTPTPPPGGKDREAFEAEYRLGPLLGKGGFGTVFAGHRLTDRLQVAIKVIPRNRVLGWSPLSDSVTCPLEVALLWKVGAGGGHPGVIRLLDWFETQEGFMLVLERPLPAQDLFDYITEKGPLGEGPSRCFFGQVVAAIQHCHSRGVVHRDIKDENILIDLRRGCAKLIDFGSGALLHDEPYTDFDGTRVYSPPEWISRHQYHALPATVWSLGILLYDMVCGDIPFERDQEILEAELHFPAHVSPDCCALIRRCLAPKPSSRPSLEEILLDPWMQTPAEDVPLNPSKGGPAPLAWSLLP
Sequence of Mitogen-activated protein kinase kinase kinase 20 (Homo sapiens) (Q9NYL2 2-800 limits assumed): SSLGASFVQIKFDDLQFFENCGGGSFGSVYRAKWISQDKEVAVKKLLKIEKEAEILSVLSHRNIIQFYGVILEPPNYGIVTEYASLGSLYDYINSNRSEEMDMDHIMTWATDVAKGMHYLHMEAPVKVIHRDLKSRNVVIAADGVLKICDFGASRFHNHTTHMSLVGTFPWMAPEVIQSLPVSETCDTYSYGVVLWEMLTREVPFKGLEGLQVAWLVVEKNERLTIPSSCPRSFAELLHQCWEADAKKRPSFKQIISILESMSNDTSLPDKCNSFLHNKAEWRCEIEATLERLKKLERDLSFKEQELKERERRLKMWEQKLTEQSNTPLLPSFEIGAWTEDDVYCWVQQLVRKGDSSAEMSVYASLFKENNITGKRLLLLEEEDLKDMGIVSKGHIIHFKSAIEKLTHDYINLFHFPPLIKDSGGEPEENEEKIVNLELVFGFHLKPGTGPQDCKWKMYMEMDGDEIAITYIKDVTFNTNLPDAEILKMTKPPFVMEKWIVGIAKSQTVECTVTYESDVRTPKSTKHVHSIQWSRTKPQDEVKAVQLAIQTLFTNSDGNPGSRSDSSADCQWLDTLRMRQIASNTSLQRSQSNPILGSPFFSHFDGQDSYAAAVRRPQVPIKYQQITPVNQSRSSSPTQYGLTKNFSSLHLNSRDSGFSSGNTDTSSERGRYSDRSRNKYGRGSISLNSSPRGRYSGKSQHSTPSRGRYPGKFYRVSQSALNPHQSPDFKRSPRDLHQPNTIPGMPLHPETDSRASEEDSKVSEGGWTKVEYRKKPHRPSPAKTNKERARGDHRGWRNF

With `Cc1cc([C@@H](C)Nc2ccccc2C(=O)O)c2nc(N3CCOCC3)cc(=O)n2c1` [AZD-6482], the % of control in assay [1] stood at 98%.
Turning to `CN(C)C/C=C/C(=O)Nc1ccc(C(=O)N2CCCC(Nc3ncc(Cl)c(-c4c[nH]c5ccccc45)n3)C2)cc1` (centres undefined), the % of control in assay [2] is 89%.
Consider `CCC(=O)N1CCN(c2ccc(-n3c(=O)ccc4cnc5ccc(-c6cnc7ccccc7c6)cc5c43)cc2C(F)(F)F)CC1`, for which, in assay [3], the % of control is 100%.
In assay [4], `COCCN1CCC(c2cc(CN(C)C(=O)c3cccc(Oc4ccccc4)c3)ccn2)CC1` came in with a % activity of 90%.
Turning to `COc1cc(Nc2nc(C)cc(-c3cnn4nc(OC)ccc34)n2)cc(C(F)(F)F)c1`, the figures for the % of control in [5] and in assay [6] were 73% and 99%, respectively.
`Cc1cnc(Nc2ccc(F)cc2Cl)nc1-c1c[nH]c(C(=O)N[C@H](CO)c2cccc(Cl)c2)c1` had a % of inhibition in [7] of 3%.
Turning to `Cc1cc(C)cc([C@@H]2c3cc(C)ccc3NC(=O)CN2C(=O)c2ccc(Br)s2)c1`, the % of activity in [8] (at 1 µM) was 95.3%; in [8] (at 10 µM) it was 95.7%.
Take `C=CC(=O)Nc1cc(-n2c(=O)ccc3cnc4ccc(-c5ccc(NS(C)(=O)=O)cc5)cc4c32)ccc1C`: the % of control in assay [9] (at 1 µM) and in assay [9] (at 10 µM) was 100% throughout.
Turning to `Cn1cc(-n2cnc3c(NCc4nc5cc(Cl)c(Cl)cc5[nH]4)nc(N4CCOCC4)nc32)cn1`, the % of control in [10] is -3.48%; in assay [11], 17.9%.
On to `O[C@H]1CC[C@H](Nc2ncc3nc(Nc4c(F)cc(F)cc4F)n([C@H]4CCOC4)c3n2)CC1`, for which, in assay [12], the % of control is 100%.

The values are drawn from ChEMBL document CHEMBL5465560, “Selectivity Literature for EUbOPEN Chemogenomic Library” (2024).
